Results from patent publication US20060111410A1, “Microbicide substances” (priority 2002, published 2006).

Tests used:
[1] = system: Pseudomonas fluorescens; assay: Synergism BIT/TMAD, amounts required to suppress growth; type: cell-based; conditions: compound applied on its own
Source text: (§1) The observed synergism of the mixtures according to the invention can be determined by the following mathematical approach (cf. F. C. Kull, P. C. Elisman, H. D. Sylwestrowicz and P. K. Mayer, Appl. Microbiol. 9, 538 (1961): [formula] where • Qa=the amount of component A in the active compound mixture required to achieve the desired effect, i.e. no microbial growth, • QA=the amount of component A which, applied on its own, suppresses the growth of the microorganisms, • Qb=the amount of component B in the active compound mixture which supresses the growth of the microorganisms, and • QB=the amount of component B which, applied on its own, suppresses the growth of the microorganisms.
(§2) A synergistic index of SI<1 indicates a synergistic effect for the active compound mixture.
Test germ: Pseudomonas fluorescens
(§3) The numbers in brackets indicate the weight ratio of the active compounds in the mixtures. [formula] A=BIT/B=TMAD

[2] = system: Pseudomonas aeruginosa; assay: as above; type: cell-based; conditions: compound applied on its own
Source text: as §1, §2
Test germ: Pseudomonas aeruginosa
as §3

Structure (SMILES)	Amounts of the pure active compounds required to suppress growth [1] [ppm]	Amounts of the pure active compounds required to suppress growth [2] [ppm]
O=C1N(CO)C2C(N1CO)N(CO)C(=O)N2CO (stereo not shown) [TMAD, tetramethylolacetylenediurea]	500	500
O=c1[nH]sc2ccccc12 [BIT, 1,2-benzisothiazolinone]	20	20
